From ChEMBL document CHEMBL6115048, “Uncovering α-Selectivity for Liver X Receptor Agonists for Lipotoxic Cancer Therapies” (J Med Chem, 2025)
Calls of active or inactive are those of the source. The rule behind the calls is not given here.

Assays:
[1] = molecular target: T1, Vitamin D3 receptor (Homo sapiens) (UniProt P11473); test: Agonist activity at VDR (unknown origin) transfected in human HepG2 cells co-transfected with renilla reniformis luciferase reporter at 10 uM incubated for 24 hrs by dual-luciferase reporter gene assay; format: cell-based
T1 sequence (whole entry): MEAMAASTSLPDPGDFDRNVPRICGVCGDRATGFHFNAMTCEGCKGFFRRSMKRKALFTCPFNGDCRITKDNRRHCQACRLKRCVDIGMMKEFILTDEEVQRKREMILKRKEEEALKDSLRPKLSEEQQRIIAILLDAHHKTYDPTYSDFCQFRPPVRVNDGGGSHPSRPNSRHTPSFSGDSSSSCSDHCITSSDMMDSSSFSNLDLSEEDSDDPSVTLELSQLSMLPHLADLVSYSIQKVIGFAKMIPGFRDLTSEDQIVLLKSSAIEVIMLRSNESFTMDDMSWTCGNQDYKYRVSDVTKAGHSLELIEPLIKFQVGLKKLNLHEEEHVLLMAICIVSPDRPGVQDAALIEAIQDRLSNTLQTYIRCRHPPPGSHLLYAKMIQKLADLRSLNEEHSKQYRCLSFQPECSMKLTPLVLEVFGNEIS

[2] = molecular target: T2, Peroxisome proliferator-activated receptor gamma (Homo sapiens) (UniProt P37231); test: Agonist activity at PPARgamma (unknown origin) transfected in human HepG2 cells co-transfected with renilla reniformis luciferase reporter at 10 uM incubated for 24 hrs by dual-luciferase reporter gene assay; format: cell-based
T2 sequence (whole entry): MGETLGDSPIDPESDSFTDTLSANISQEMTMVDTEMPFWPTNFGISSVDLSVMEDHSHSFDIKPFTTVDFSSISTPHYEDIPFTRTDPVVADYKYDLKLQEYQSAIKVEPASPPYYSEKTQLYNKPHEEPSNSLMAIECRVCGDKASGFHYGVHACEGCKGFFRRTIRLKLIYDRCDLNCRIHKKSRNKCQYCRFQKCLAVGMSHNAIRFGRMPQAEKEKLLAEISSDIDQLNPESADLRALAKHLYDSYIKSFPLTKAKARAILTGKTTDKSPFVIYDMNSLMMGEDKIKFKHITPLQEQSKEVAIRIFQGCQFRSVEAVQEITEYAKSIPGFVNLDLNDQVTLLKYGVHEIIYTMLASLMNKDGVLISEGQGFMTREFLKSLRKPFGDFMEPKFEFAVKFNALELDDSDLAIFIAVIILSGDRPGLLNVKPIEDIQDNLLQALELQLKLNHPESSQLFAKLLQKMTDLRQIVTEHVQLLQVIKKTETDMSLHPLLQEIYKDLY

[3] = molecular target: T3, Bile acid receptor (Homo sapiens) (UniProt Q96RI1); test: Agonist activity at FXR (unknown origin) transfected in human HepG2 cells co-transfected with renilla reniformis luciferase reporter at 10 uM incubated for 24 hrs by dual-luciferase reporter gene assay; format: cell-based
T3 sequence (whole entry): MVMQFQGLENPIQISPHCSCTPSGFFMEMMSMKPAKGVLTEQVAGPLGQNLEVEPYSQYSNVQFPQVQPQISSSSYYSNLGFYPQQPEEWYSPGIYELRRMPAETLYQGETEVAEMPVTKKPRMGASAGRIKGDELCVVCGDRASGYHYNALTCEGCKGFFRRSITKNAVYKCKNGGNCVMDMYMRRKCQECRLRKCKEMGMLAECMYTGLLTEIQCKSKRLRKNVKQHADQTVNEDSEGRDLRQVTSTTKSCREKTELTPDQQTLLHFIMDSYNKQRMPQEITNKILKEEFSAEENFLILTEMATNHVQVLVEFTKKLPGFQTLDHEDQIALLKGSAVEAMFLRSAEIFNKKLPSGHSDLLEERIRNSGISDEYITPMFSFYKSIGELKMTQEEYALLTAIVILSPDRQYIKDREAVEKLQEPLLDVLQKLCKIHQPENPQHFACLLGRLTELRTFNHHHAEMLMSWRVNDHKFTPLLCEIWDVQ

[4] = molecular target: T4, Nuclear receptor subfamily 1 group I member 3 (Mus musculus, UniProt O35627); test: Agonist activity at mouse CAR transfected in human HepG2 cells co-transfected with p2B6-luciferase reporter at 10 uM incubated for 24 hrs by dual-luciferase reporter gene assay; format: cell-based; settings: hepg2, 24 h
T4 sequence (O35627 whole entry): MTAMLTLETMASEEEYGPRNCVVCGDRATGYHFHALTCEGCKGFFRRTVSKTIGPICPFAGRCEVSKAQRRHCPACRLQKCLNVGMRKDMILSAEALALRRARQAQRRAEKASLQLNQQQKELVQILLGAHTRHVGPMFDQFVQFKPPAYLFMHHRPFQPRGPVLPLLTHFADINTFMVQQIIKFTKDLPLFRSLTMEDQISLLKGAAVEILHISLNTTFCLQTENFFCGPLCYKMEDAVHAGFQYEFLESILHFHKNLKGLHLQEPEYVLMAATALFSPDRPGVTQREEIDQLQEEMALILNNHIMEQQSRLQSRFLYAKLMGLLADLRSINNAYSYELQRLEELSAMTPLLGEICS

Hep 3B2 [5] = test: Induction of endoplasmic reticulum (ER) stress in human Hep3B cells assessed as increase in CHOP expression measured after 3 days in presence of sorafenib by Western blot analysis; format: functional, cell-based; settings: time 3.0 day
Hep 3B2 [6] = test: Antiproliferative activity against human Hep3B cells assessed as reduction in cell viability at 0.01 to 100 uM measured after 5 days in presence of sorafenib and sodium oleate by CellTiter-Glo assay; format: functional, cell-based; settings: dose 0.01-100 µM, time 5.0 day
AML12 = test: Cytotoxicity against mouse AML12 cells assessed as reduction in cell viability at 0.01 to 100 uM measured after 5 days in presence of sorafenib by CellTiter-Glo assay; format: toxicity, cell-based; settings: aml12, 120 h, dose 0.01-100 µM, time 5 day
BNL CL.2 = test: Cytotoxicity against mouse BNL CL.2 cells assessed as reduction in cell viability at 0.01 to 100 uM measured after 5 days in presence of sorafenib by CellTiter-Glo assay; format: toxicity, cell-based; settings: bnl cl.2, 120 h, dose 0.01-100 µM, time 5 day
[7] = tested on: Hepatocellular carcinoma organoid; test: Antiproliferative activity against C57BL/6 mouse Hepatocellular carcinoma organoids harboring myristoylated Akt1 and overexpressing Myc assessed as reduction in cell viability at 1 to 5 uM measured after 5 days in presence of sorafenib by Celltiter-glo assay; format: functional, tissue-based; settings: Neoplasm, dose 1-5 µM, time 5.0 day
Hep 3B2 [8] = test: Induction of oxidative stress in human Hep3B cells assessed as increase in SOD1 expression measured after 3 days in presence of sorafenib by Western blot analysis; format: functional, cell-based; settings: time 3.0 day

Activity [1]: inactive
Activity [2]: inactive
Activity [3]: inactive
Activity [4]: Not_active
Structure (SMILES): O=C1C(Nc2ccc(N3CCCCC3)cc2)=C(c2ccccc2)C(=O)N1Cc1ccccc1
Activity (Hep 3B2 [5]): Active
Activity (Hep 3B2 [6]): inactive
Activity (AML12): Toxic
Activity (BNL CL.2): Toxic
Activity [7]: Active
Activity (Hep 3B2 [8]): Active
